Assay results from ChEMBL document CHEMBL1149209, “Synthesis and structure-activity relationship of 2-(aminoalkyl)-3,3a,8,12b-tetrahydro-2H-dibenzocyclohepta[1,2-b]furan derivatives: a novel series of 5-HT(2A/2C) receptor antagonists” (Bioorg Med Chem Lett, 2004).

Key:
[1] = molecular target: 5-hydroxytryptamine receptor 2A (Homo sapiens, UniProt P28223); test: Ability to displace [125I]R91150 from human cloned 5-hydroxytryptamine 2A receptor expressed in L929 cells; assay type: cell-based
[2] = molecular target: Histamine H1 receptor (Homo sapiens, UniProt P35367); test: Ability to displace [3H]pyrilamine from human cloned histamine H1 receptor expressed in CHO cells; assay type: cell-based
Sequence of Histamine H1 receptor (P35367 whole entry): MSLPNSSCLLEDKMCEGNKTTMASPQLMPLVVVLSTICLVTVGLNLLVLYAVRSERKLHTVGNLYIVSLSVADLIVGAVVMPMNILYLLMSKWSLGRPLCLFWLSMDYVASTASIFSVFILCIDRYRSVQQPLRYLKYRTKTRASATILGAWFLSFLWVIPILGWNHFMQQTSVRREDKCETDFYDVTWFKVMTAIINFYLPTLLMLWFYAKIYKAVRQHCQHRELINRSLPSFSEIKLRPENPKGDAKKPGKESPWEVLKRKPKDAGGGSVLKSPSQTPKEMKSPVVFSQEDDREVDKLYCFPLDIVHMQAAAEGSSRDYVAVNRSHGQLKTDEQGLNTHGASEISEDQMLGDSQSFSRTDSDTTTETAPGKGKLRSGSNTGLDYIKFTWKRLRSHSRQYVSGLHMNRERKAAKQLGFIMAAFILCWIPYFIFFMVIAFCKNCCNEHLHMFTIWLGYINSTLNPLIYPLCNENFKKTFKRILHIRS

[3] = molecular target: T1, 5-hydroxytryptamine receptor 2C (Homo sapiens, UniProt P28335); test: Ability to displace [3H]- mesulergine from human cloned 5-hydroxytryptamine 2C receptor expressed in CHO cells; assay type: cell-based
T1 sequence (P28335 whole entry): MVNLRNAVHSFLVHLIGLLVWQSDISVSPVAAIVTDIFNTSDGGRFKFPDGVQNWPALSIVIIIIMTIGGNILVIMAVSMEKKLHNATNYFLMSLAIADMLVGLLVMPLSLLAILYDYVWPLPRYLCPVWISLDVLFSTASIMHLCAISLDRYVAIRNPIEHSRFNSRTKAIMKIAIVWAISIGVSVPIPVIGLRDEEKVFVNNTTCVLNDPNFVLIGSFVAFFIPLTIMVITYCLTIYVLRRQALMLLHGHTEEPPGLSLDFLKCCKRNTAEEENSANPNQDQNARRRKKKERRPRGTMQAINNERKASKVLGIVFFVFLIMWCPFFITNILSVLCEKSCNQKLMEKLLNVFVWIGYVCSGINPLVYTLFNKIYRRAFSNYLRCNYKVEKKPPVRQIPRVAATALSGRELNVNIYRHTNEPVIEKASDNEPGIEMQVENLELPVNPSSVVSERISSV

[4] = test system: Rattus norvegicus; test: Effective dose required for antagonistic activity in mCPP challenge test in male wistar rats after subcutaneous administration; assay type: functional; details: sc

Sequence of 5-hydroxytryptamine receptor 2A (P28223 whole entry): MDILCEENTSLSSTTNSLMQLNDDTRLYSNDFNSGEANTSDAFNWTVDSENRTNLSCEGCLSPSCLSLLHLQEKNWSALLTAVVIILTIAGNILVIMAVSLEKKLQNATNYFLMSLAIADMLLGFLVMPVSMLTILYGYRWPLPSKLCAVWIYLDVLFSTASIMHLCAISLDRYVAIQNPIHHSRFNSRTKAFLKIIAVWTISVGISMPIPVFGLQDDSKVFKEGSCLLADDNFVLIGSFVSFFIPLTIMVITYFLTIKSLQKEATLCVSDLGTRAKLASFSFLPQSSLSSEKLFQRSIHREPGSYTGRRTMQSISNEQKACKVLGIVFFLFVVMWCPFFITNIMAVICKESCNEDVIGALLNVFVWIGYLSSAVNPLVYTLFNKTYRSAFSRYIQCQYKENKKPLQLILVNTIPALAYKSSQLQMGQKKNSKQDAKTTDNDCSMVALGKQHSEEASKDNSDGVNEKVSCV

Ki [1] [nM]	Ki [2] [nM]	Ki [3] [nM]	Structure (SMILES)	ED50 [4] [mg/kg]
56	471	107	Clc1cccc(N2CCN(CC3C[C@@H]4c5ccccc5Cc5ccccc5[C@H]4O3)CC2)c1 (stereo partly specified)	–
433	2.36	27	c1ccc2c(c1)Cc1ccccc1[C@H]1OC(CN3CCOCC3)C[C@H]21 (stereo partly specified)	–
80.7	6	12.9	CN(C)CC1C[C@@H]2c3ccccc3N(C)c3ccccc3[C@H]2O1 (stereo partly specified)	–
1060	20.6	124	CN(C)CC1C[C@@H]2c3ccccc3COc3ccccc3[C@H]2O1 (stereo partly specified)	–
433	3	677	CN1CCN(CC2C[C@@H]3c4ccccc4Cc4ccccc4[C@H]3O2)CC1 (stereo partly specified)	–
30.7	4.3	24.7	CN(C)CC1C[C@@H]2c3ccccc3Sc3ccccc3[C@H]2O1 (stereo partly specified)	–
48.6	9.3	9.7	CNCC1C[C@@H]2c3ccccc3Cc3ccccc3[C@H]2O1 (stereo partly specified)	–
2.5	0.54	0.93	CN(C)C[C@H]1C[C@@H]2c3ccccc3Cc3ccccc3[C@H]2O1	0.04
104	3.74	28	CN(C)C[C@@H]1C[C@H]2c3ccccc3Cc3ccccc3[C@@H]2O1	1.26
68.7	47.1	239	c1ccc(C2CCN(CC3C[C@@H]4c5ccccc5Sc5ccccc5[C@H]4O3)CC2)cc1 (stereo partly specified)	–
17.3	1.2	120	CN1CCN(CC2C[C@@H]3c4ccccc4Sc4ccccc4[C@H]3O2)CC1 (stereo partly specified)	–
90.5	9.6	32.5	CN(C)CC1C[C@@H]2c3ccccc3OCc3ccccc3[C@H]2O1 (stereo partly specified)	–
92.6	32.6	183	CN(C)CC1C[C@H]2c3ccccc3Oc3ccccc3[C@H]2O1 (stereo partly specified)	–
102	27	166	CN(C)CC1C[C@H]2c3ccccc3Cc3ccccc3[C@H]2O1 (stereo partly specified)	–
21.7	0.7	6.7	CN(C)CC1C[C@@H]2c3ccccc3Cc3ccccc3[C@H]2O1 (stereo partly specified)	–
1090	29.7	42.7	c1ccc(C2CCN(CC3C[C@@H]4c5ccccc5Cc5ccccc5[C@H]4O3)CC2)cc1 (stereo partly specified)	–
74.1	3.5	15.9	CNC[C@@H]1CC2c3ccccc3Cc3ccccc3C2O1 (single isomer, unassigned)	2.2
2.5	0.64	1	CN(C)C[C@@H]1C[C@@H]2c3ccccc3Cc3ccccc3N2O1	0.04
37	14	31	CN(C)CC1C[C@@H]2c3ccccc3Oc3ccccc3[C@H]2O1 (stereo partly specified)	–
433	1.9	17	O=C(c1ccc(F)cc1)C1CCN(CC2C[C@@H]3c4ccccc4Cc4ccccc4[C@H]3O2)CC1 (stereo partly specified)	–
19.6	0.63	3.25	CN(C)C[C@@H]1C[C@@H]2c3ccccc3Cc3ccccc3[C@H]2O1	0.06
86.5	3.7	170	OCCN1CCN(CC2C[C@@H]3c4ccccc4Cc4ccccc4[C@H]3O2)CC1 (stereo partly specified)	–
